Measured values: US11629143B2, “HipK4 inhibitors and uses thereof” (Vibliome Therapeutics, LLC, priority 2020, dated 2023)

Legend:
Experiment in all cases: Kinase panel (mobility shift)
Format in all cases: biochemical
EPH-A6 = biological target: T1, EPH-A6 (Homo sapiens, UniProt Q9UF33)
T1 sequence (Q9UF33 23-1036): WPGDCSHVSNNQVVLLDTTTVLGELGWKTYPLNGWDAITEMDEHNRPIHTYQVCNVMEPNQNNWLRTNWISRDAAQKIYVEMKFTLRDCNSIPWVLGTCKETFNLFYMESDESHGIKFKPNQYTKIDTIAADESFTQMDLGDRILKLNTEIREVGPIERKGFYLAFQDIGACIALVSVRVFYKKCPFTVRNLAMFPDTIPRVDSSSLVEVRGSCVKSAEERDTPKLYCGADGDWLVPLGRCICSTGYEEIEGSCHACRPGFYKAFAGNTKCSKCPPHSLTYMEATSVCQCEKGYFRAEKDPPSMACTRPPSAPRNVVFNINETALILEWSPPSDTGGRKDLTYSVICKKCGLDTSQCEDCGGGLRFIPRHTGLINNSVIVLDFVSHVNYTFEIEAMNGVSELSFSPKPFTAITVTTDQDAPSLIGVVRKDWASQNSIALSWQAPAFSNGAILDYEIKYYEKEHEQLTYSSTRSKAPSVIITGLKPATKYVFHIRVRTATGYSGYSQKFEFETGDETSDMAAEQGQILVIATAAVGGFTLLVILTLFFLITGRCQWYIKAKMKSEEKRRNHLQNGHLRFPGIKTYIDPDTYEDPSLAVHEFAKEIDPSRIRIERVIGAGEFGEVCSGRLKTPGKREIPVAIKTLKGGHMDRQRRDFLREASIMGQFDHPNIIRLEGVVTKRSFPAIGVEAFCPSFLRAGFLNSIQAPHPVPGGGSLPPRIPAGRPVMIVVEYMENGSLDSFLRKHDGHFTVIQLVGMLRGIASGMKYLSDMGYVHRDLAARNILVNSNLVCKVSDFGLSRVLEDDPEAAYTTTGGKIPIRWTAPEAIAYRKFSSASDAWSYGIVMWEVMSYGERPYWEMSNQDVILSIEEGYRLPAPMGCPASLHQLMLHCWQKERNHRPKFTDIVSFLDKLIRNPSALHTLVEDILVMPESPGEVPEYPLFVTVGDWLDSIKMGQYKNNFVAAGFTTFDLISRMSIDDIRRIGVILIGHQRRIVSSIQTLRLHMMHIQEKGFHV
Experimental: (§1) The disclosed compounds were tested for activity against a panel of 299 kinases. The target enzyme was incubated with fluorescently labeled substrate and test compounds in a standardized reaction mixture in 384 well plates. Upon termination of the reaction, samples were introduced onto microfluidic chips. The samples migrated through channels in the chips and product and substrate were separated based on the difference in their charge (electrophoretic mobility shift). Enzyme activity was measured by direct comparison of the fluorescence in the product and substrate peaks. […] In the tables A=95% or greater at 5 um, B=90%-94% at 5 um, and C=80%-89% at 5 um. [note to draft: we included category D for 50-79 and category E is less than 50%. Feel free to remove if not needed)

PDGFR-a = PDGFR-a (Homo sapiens, UniProt P16234)
Sequence of PDGFR-a (P16234 24-1089, species assumed): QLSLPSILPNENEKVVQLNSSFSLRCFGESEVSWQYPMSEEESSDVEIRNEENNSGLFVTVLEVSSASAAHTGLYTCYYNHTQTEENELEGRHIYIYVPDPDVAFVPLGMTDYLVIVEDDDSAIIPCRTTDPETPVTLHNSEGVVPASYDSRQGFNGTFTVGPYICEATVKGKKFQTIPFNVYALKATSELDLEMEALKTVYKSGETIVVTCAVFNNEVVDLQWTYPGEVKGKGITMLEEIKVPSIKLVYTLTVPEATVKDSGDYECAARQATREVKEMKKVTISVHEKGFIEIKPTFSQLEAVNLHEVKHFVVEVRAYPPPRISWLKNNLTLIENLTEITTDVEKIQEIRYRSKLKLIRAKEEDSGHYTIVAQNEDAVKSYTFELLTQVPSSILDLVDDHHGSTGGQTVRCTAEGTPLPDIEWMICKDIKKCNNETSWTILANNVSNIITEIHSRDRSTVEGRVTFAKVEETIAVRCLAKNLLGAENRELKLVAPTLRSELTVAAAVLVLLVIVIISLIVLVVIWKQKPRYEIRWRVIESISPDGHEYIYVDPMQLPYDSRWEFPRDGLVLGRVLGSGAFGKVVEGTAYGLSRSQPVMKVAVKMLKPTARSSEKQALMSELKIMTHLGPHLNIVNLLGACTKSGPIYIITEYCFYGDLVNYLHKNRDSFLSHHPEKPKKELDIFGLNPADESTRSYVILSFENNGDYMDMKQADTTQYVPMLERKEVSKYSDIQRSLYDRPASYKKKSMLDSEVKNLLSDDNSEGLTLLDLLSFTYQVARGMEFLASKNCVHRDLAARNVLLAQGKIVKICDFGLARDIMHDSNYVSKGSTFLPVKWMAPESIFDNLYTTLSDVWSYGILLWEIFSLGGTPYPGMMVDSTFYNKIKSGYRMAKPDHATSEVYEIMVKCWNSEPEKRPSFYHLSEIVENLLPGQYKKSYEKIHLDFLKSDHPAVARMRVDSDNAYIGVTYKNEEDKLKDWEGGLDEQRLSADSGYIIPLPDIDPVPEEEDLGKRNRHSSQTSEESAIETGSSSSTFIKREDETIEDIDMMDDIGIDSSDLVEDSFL
Experimental: as §1

TAOK3 = biological target: T2, TAOK3 (Homo sapiens, UniProt Q9H2K8)
T2 sequence (Q9H2K8 1-898): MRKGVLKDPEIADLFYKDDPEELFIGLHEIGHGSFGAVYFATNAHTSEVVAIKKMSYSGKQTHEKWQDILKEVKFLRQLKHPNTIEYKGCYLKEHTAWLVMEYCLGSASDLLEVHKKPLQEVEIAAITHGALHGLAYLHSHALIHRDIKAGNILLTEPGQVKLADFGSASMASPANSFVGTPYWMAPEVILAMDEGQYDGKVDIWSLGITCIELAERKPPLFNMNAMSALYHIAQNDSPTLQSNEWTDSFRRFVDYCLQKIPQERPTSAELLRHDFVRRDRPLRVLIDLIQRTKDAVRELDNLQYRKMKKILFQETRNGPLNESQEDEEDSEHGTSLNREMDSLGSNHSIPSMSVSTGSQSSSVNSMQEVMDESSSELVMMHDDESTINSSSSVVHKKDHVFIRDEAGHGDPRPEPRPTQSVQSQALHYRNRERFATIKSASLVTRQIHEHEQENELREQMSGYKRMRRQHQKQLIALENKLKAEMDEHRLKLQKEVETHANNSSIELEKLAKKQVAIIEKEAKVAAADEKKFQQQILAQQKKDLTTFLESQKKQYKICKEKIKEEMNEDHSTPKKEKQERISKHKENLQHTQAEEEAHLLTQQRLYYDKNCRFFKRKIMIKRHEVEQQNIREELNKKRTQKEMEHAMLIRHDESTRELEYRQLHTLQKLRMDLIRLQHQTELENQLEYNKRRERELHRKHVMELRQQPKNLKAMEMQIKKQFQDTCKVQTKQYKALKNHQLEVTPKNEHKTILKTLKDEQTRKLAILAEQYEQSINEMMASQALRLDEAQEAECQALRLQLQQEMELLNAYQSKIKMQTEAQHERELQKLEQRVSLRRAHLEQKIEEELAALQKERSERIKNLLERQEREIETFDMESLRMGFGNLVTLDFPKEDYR
Experimental: as §1

TRKA = TRKA (Homo sapiens, UniProt P04629)
Sequence of TRKA (P04629 33-796, species assumed): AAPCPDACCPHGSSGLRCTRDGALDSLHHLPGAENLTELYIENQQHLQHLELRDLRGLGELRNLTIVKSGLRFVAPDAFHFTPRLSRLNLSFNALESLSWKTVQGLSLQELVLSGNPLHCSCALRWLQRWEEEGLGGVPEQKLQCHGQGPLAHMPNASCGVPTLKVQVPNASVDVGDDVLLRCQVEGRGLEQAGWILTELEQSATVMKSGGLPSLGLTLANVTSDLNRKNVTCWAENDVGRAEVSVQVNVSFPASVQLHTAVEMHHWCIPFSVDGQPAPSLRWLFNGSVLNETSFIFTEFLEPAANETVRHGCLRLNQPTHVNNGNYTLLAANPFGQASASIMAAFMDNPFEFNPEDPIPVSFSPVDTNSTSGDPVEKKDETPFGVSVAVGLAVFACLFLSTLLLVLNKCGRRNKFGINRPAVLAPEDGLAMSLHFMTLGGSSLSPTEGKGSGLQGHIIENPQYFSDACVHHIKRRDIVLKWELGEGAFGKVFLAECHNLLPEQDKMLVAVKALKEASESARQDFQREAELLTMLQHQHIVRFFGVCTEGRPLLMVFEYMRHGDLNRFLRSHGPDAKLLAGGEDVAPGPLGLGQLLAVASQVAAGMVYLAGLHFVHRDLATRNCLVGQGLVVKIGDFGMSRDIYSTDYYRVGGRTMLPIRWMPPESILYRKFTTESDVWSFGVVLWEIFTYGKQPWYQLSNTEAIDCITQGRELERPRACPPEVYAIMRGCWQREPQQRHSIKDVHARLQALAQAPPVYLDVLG
Experimental: as §1

TRKB = TRKB (Homo sapiens, UniProt Q16620)
Sequence of TRKB (Q16620 32-822, species assumed): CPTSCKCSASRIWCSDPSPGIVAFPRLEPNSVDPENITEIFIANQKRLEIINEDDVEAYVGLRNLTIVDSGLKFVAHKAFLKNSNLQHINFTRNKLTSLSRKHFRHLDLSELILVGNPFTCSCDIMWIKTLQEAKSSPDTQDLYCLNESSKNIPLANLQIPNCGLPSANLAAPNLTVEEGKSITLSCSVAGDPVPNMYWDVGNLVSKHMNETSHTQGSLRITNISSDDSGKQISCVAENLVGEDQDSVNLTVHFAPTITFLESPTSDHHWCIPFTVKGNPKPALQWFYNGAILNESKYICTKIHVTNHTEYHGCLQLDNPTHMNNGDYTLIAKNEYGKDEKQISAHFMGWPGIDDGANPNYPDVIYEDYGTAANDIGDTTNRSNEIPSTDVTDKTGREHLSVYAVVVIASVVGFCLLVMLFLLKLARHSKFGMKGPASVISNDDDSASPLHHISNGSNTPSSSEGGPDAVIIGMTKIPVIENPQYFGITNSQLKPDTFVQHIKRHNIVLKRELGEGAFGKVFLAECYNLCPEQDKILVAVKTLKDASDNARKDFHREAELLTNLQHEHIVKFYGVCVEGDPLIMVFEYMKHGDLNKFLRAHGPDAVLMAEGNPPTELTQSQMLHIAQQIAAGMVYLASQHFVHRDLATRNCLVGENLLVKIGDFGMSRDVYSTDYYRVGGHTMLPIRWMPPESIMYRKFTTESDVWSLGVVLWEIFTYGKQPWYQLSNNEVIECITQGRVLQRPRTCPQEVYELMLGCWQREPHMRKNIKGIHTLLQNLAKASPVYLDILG
Experimental: as §1

Compound | inhibition at 5 µM (EPH-A6) | inhibition at 5 µM (PDGFR-a) | inhibition at 5 µM (TAOK3) | inhibition at 5 µM (TRKA) | inhibition at 5 µM (TRKB)
CSc1nc(C(=O)Nc2ccc(Oc3ccnc(N)c3Cl)c(F)c2)c(-c2ccc(F)cc2)o1 [Compound 1] | < 50% | < 50% | < 50% | < 50% | < 50%
CSc1nc(C(=O)Nc2ccc(Oc3cc4cnn(C)c4cc3Br)c(F)c2)c(-c2ccc(F)cc2)o1 [Compound 2] | 50 to 79% | < 50% | < 50% | < 50% | < 50%
CNC(=O)c1cc(Oc2ccc(NC(=O)c3nc(SC)oc3-c3ccc(F)cc3Cl)cc2)ccn1 [Compound 3] | 50 to 79% | 50 to 79% | < 50% | 80 to 89% | 80 to 89%
CNC(=O)c1cc(Oc2ccc(NC(=O)c3nc(SC)oc3-c3ccc(F)c(F)c3)cc2)ccn1 [Compound 4] | 50 to 79% | < 50% | 50 to 79% | 50 to 79% | < 50%
CNC(=O)c1cc(Oc2ccc(NC(=O)c3nc(SC)oc3-c3ccc(Cl)s3)cc2)ccn1 [Compound 5] | 50 to 79% | < 50% | < 50% | < 50% | < 50%
CNC(=O)c1cc(Oc2ccc(NC(=O)c3nc(SC)oc3-c3ccc(F)cc3F)cc2)ccn1 [Compound 6] | ≥ 95% | < 50% | < 50% | 80 to 89% | 90 to 94%
CNC(=O)c1cc(Oc2ccc(NC(=O)c3nc(SC)oc3-c3ccc(OC)cc3)cc2)ccn1 [Compound 7] | < 50% | < 50% | < 50% | < 50% | < 50%
CSc1nc(C(=O)Nc2ccc(Oc3ccnc(-c4cnn(C)c4)c3)c(F)c2)c(-c2ccc(F)cc2)o1 [Compound 11] | ≥ 95% | 90 to 94% | < 50% | 50 to 79% | 50 to 79%
CNC(=O)c1cc(Oc2ccc(NC(=O)c3nc(SC)oc3-c3ccc(F)cc3F)cc2F)ccn1 [Compound 12] | 80 to 89% | < 50% | 50 to 79% | 80 to 89% | 80 to 89%
CNC(=O)c1cc(Oc2ccc(NC(=O)c3nc(S(C)(=O)=O)sc3-c3ccc(F)cc3)cc2F)ccn1 [Compound 13] | ≥ 95% | 50 to 79% | < 50% | 50 to 79% | 50 to 79%
CNC(=O)c1cc(Oc2ccc(NC(=O)c3nc(NC)oc3-c3ccc(F)cc3)cc2F)ccn1 [Compound 14] | 80 to 89% | < 50% | 90 to 94% | 80 to 89% | 90 to 94%
CNC(=O)c1cc(Oc2ccc(NC(=O)c3nc(OC)oc3-c3ccc(F)cc3)cc2F)ccn1 [Compound 15] | 90 to 94% | 50 to 79% | < 50% | 50 to 79% | 50 to 79%
CNC(=O)c1cc(Oc2ccc(NC(=O)c3nc(SC)oc3-c3ccc(F)s3)cc2F)ccn1 [Compound 16] | 50 to 79% | < 50% | < 50% | < 50% | < 50%
CNC(=O)c1cc(Oc2ccc(NC(=O)c3nc(NC)oc3-c3ccc(F)s3)cc2F)ccn1 [Compound 17] | < 50% | < 50% | < 50% | 50 to 79% | 50 to 79%

Next, values leading:

inhibition at 5 µM (EPH-A6) | inhibition at 5 µM (PDGFR-a) | inhibition at 5 µM (TAOK3) | inhibition at 5 µM (TRKA) | inhibition at 5 µM (TRKB) | Compound
80 to 89% | 50 to 79% | 50 to 79% | 50 to 79% | < 50% | CNC(=O)c1cc(Oc2c(F)cc(NC(=O)c3nc(NC)sc3-c3ccc(F)cc3)cc2F)ccn1 [Compound 19]
50 to 79% | < 50% | 50 to 79% | 50 to 79% | 50 to 79% | CNC(=O)c1cc(Oc2ccc(NC(=O)c3nc(NC)sc3-c3ccc(F)cc3F)cc2F)ccn1 [Compound 21]
80 to 89% | < 50% | 50 to 79% | 80 to 89% | 80 to 89% | CNC(=O)c1cc(Oc2ccc(NC(=O)c3nc(NC)sc3-c3ccc(F)cc3C)cc2F)ccn1 [Compound 23]
50 to 79% | < 50% | < 50% | 50 to 79% | < 50% | CNC(=O)c1cc(Oc2ccc(NC(=O)c3nc(OC)oc3-c3ccc(F)c(F)c3)cc2F)ccn1 [Compound 24]
50 to 79% | < 50% | < 50% | < 50% | < 50% | CNC(=O)c1cc(Oc2ccc(NC(=O)c3nc(OC)oc3-c3ccc(F)s3)cc2F)ccn1 [Compound 25]
90 to 94% | 50 to 79% | 80 to 89% | 80 to 89% | 50 to 79% | CNC(=O)c1cc(Oc2ccc(NC(=O)c3nc(C4CC4)oc3-c3ccc(F)cc3)cc2F)ccn1 [Compound 26]
< 50% | < 50% | < 50% | < 50% | < 50% | CSc1nc(C(=O)Nc2ccc(Oc3ccnc(C(=O)NC4CNC4)c3)c(F)c2)c(-c2ccc(F)s2)o1 [Compound 27]
< 50% | < 50% | < 50% | < 50% | < 50% | CSc1nc(C(=O)Nc2ccc(Oc3ccnc(C(=O)NC4COC4)c3)c(F)c2)c(-c2ccc(F)s2)o1 [Compound 28]
80 to 89% | < 50% | 50 to 79% | < 50% | < 50% | CSc1nc(C(=O)Nc2ccc(Oc3ccnc(C(=O)NC4CNC4)c3)c(F)c2)c(-c2ccc(F)cc2)o1 [Compound 29]
≥ 95% | 50 to 79% | 80 to 89% | 90 to 94% | 80 to 89% | CNC(=O)c1cc(Oc2ccc(NC(=O)c3nc(COC)oc3-c3ccc(F)cc3)cc2F)ccn1 [Compound 30]
80 to 89% | < 50% | < 50% | < 50% | < 50% | CSc1nc(C(=O)Nc2ccc(Oc3ccnc(C(=O)NC4COC4)c3)c(F)c2)c(-c2ccc(F)cc2)o1 [Compound 31]
